Reference: PubChem BioAssay AID330 (DTP/NCI, 2004)
Where “and” joins values, the source holds several entries; their conditions need not be identical. Identical values can stand only once. Toxic doses and inconclusive results are not listed. How the source made its calls: active means survival T/C of 150% or more; inactive means T/C below 125% in these data.

Test system: P388 leukemia ip, CD2F1 mice, survival T/C
Experiment: NCI In Vivo Anticancer Drug Screen. Data for tumor model P388 Leukemia (intraperitoneal) in CD2F1 (CDF1) mice
Details: endpoint: median survival time, higher = longer survival
Procedure, shortened: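 Mice carrying the transplanted tumor received test compound or vehicle. Survival was recorded in each group, and the value is the treated-group measurement divided by that of the vehicle-treated control group.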

[1] = dose: 50.0 mg/kg/injection, schedule: Q01DX005 (ip), vehicle: saline with Tween-80
[2] = dose: 100.0 mg/kg/injection, schedule: Q01DX005 (ip), vehicle: saline with Tween-80
[3] = dose: 60.0 mg/kg/injection, schedule: Q01DX005 (ip), vehicle: saline
[4] = dose: 120.0 mg/kg/injection, schedule: Q01DX005 (ip), vehicle: saline
[5] = dose: 240.0 mg/kg/injection, schedule: Q01DX005 (ip), vehicle: saline
[6] = dose: 100.0 mg/kg/injection, schedule: Q04DX003 (ip), vehicle: saline with Tween-80
[7] = dose: 200.0 mg/kg/injection, schedule: Q04DX003 (ip), vehicle: saline with Tween-80
[8] = dose: 400.0 mg/kg/injection, schedule: Q04DX003 (ip), vehicle: saline with Tween-80
[9] = dose: 12.5 mg/kg/injection, schedule: Q01DX009 (ip), vehicle: saline
[10] = dose: 25.0 mg/kg/injection, schedule: Q01DX009 (ip), vehicle: saline
[11] = dose: 60.0 mg/kg/injection, schedule: Q01DX005 (ip), vehicle: saline with Tween-80
[12] = dose: 120.0 mg/kg/injection, schedule: Q01DX005 (ip), vehicle: saline with Tween-80
[13] = dose: 240.0 mg/kg/injection, schedule: Q01DX005 (ip), vehicle: saline with Tween-80

Measured: T/C

C=CCn1cc2c3c(cccc31)C1CC(C)CN(C)C1C2 (centres undefined)
inactive: [1] 99 % of control | [2] 111 % of control

CN(C)CC(CN(C)C)C(O)c1ccccc1 (centres undefined)
inactive: [3] 109 % of control | [4] 100 % of control | [5] 109 % of control

Cc1cn(C2OC(CO)C(O)C2O)c(=O)[nH]c1=O (centres undefined)
inactive: dose: 100.0 mg/kg/injection, schedule: Q01DX009 (ip), vehicle: saline with Tween-80 90 % of control | [6] 104 % of control | dose: 200.0 mg/kg/injection, schedule: Q01DX009 (ip), vehicle: saline with Tween-80 104 % of control | [7] 104 % of control | dose: 400.0 mg/kg/injection, schedule: Q01DX009 (ip), vehicle: saline with Tween-80 100 % of control | [8] 100 % of control

C=CC(C)(C)c1c(OC)oc(-c2ccccc2)cc1=O
inactive: dose: 5.0 mg/kg/injection, schedule: Q01DX005 (ip), vehicle: saline + Tween-80 + alcohol 106 % of control | dose: 10.0 mg/kg/injection, schedule: Q01DX005 (ip), vehicle: saline + Tween-80 + alcohol 111 % of control | dose: 20.0 mg/kg/injection, schedule: Q01DX005 (ip), vehicle: saline + Tween-80 + alcohol 106 % of control | dose: 40.0 mg/kg/injection, schedule: Q01DX005 (ip), vehicle: saline + Tween-80 + alcohol 110 % of control

COc1cc(/C=N\Nc2ccccc2[N+](=O)[O-])cc(OC)c1OC
inactive: [6] 87 % of control | [7] 87 % of control | [8] 91 % of control

Nc1[nH]c(=S)[nH]c(=O)c1N=O
inactive: dose: 6.25 mg/kg/injection, schedule: Q01DX009 (ip), vehicle: saline 100 % of control and 113 % of control | [9] 98 % of control | [10] 100 % of control and 117 % of control

CC(C)(C)SC#CC(Sc1ccccc1)=C(Sc1ccccc1)Sc1ccccc1
inactive: [6] 100 % of control | [7] 100 % of control | [8] 100 % of control

N=C(N)c1ccc(OCCCCCCOc2ccc(C(=N)N)cc2I)cc1
inactive: dose: 3.12 mg/kg/injection, schedule: Q01DX005 (ip), vehicle: Klucel (hydroxypropylcellulose) (HPC) 97 % of control | dose: 6.25 mg/kg/injection, schedule: Q01DX005 (ip), vehicle: Klucel (hydroxypropylcellulose) (HPC) 106 % of control | dose: 12.5 mg/kg/injection, schedule: Q01DX005 (ip), vehicle: Klucel (hydroxypropylcellulose) (HPC) 107 % of control and 97 % of control

CCOC(=O)COC(=O)C1C(C(N)=O)N(CC(=O)OCC)CCN1CC(=O)OCC (centres undefined)
inactive: [1] 101 % of control | [2] 99 % of control | dose: 200.0 mg/kg/injection, schedule: Q01DX005 (ip), vehicle: saline with Tween-80 103 % of control

Cc1ccc2c(c1)NC(=O)CC(c1ccccc1)=N2
inactive: [11] 97 % of control | [12] 96 % of control | [13] 96 % of control

O=C(NC(ON1CCCCC1)C(=O)O)c1ccccc1 (centres undefined)
inactive: dose: 50.0 mg/kg/injection, schedule: Q01DX009 (ip), vehicle: Klucel (hydroxypropylcellulose) (HPC) 104 % of control | dose: 100.0 mg/kg/injection, schedule: Q01DX009 (ip), vehicle: Klucel (hydroxypropylcellulose) (HPC) 102 % of control | dose: 200.0 mg/kg/injection, schedule: Q01DX009 (ip), vehicle: Klucel (hydroxypropylcellulose) (HPC) 98 % of control

NCCCCC1(CCCCN)OCCO1
inactive: [9] 95 % of control | [10] 95 % of control | dose: 50.0 mg/kg/injection, schedule: Q01DX009 (ip), vehicle: saline 100 % of control

COc1cccc2c1[C@@]1(C)C3C(=O)OC(C)(c4ccccc43)[C@@]1(C)C2=O (some centres undefined)
inactive: [11] 108 % of control | [12] 110 % of control | [13] 103 % of control

COC(=O)c1nc(N)nc(C(=O)OC)c1C(=O)c1ccc([N+](=O)[O-])cc1
inactive: [11] 105 % of control | [12] 97 % of control

O=c1[nH]cc([N+](=O)[O-])cc1Cl
inactive: [1] 104 % of control | [2] 95 % of control

Nc1nc(-c2ccc(Cl)cc2)cc(-c2cc(-c3ccc(Cl)cc3)nc(N)n2)n1
inactive: [3] 110 % of control | [4] 102 % of control | [5] 100 % of control
